These results are taken from patent US20250235543A1, “MODIFIED PROTEINS AND PROTEIN DEGRADERS” (Cullgen (Shanghai), Inc., priority 2021, published 2025).

Each structure is given as a SMILES string. A value given as a limit tells only on which side of the number the result lay.

One assay concerns the target T1, DDB1 (Homo sapiens, UniProt Q16531, D705G/DEL396-460/DEL463-701/I704S/T703N).
T1 construct: His6 (N, cleaved yes); TEV protease cleavage site (N, cleaved yes); made in house; host or cells: SF9 insect cells, Bac-to-Bac baculovirus, pFastBacHTB vector
Put plainly: SPR binding assay to immobilized DDB1ΔBPB. The settings on record: binding affinities to DDB1. In outline: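 Untagged Sf9-expressed DDB1ΔBPB (BPB domain aa 396-705 replaced by GNGNSG linker) amine-coupled to CM5 chip at 10,000-12,000 RU; 25° C, HBS-EP pH 7.4 with 5% DMSO. Compounds injected multi-cycle at 100 μM-3.125 μM (6-point two-fold); double-referenced, solvent-corrected data fit to steady-state model for Kd.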

Assay [1] has as its system cyclin D1. Put plainly: Cyclin D1 percentage degradation in Calu-1 cells (immunoblotting). The class given is cell-based. Particulars: 200 nM, 16 hours. The method in brief: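 Cells were rinsed once in cold PBS and lysed in cold RIPA buffer containing protease and phosphatase inhibitors, with gentle agitation at 4° C. for 30 min. Lysates were spun at 13,000 rpm for 10 min at 4° C., protein was measured by BCA, and samples were boiled in Laemmli buffer at 99° C. for 5 min before SDS-PAGE immunoblotting.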

The subject of another assay is Hs578T. Kind of assay: Cell viability assay, Hs578T. It is filed as cell-based. The settings on record: Homo sapiens, Hs-578T, 72 h, TNBC, 3 days, read-out: Cellular Anti-proliferation activity (IC50). On the procedure:
(§1) Cells were treated with CDK4/6 inhibitors palbociclib, ribociclib, or abemaciclib, or heterobifunctional compounds CPD-002 or CPD-031 following a 9-point serial dilution for 3 days.
(§2) Cells were seeded at a density of 2,000-5,000 cells per well in 96-well assay plates and treated with test compounds following a 10-point serial dilution for 3-6 days. Cell viability was determined using the CellTiter-Lumi assay kit according to the manufacturer's instructions. The dose-response curves were determined and IC50 values were calculated using the GraphPad Prism software following a nonlinear regression (least squares fit) method. Data presented was mean±standard deviation (SD) unless otherwise indicated.

The next assay deals with KURAMOCHI
Put plainly: Cell viability assay, KURAMOCHI
The class given is cell-based. The settings on record: 72 h, OC, 3 days, read-out: Cellular Anti-proliferation activity (IC50). On the procedure: as §1, §2

A further assay deals with MIA PaCa-2. Kind of assay: Cell viability assay, MIA PaCa-2. It is filed as cell-based. Particulars: Homo sapiens, 72 h; MIA PaCa-2, PC, 3 days; read-out: Cellular Anti-proliferation activity (IC50). As for the experimental part:
as §1, §2

Assay [2] concerns cyclin D1. Kind of assay: Immunoblot of cyclin D1 in parental or DDB1 knockout Hs578T cells. The class given is cell-based. Particulars: parental vs DDB1 knockout Hs578T cells, 4 hours. On the procedure: FIG. 5 show immunoblots of cyclin D1, cyclin D2 and cyclin D3 proteins expressed by Calu-1 cells after treatment with heterobifunctional compounds CPD-002 and CPD-004 (A), or CPD-031 (B) in the presence or absence of MLN4924 (MLN), MG-132 (MG), or TAK-243 (TAK), and immunoblots of cyclin D1 proteins expressed in parental or DDB1 knockout Hs578T cells after treatment with heterobifunctional compound CPD-031 at indicated concentrations for 4 hours (C).
The heterobifunctional compound-mediated degradation was dependent on the ubiquitin-proteasome system and cullin E3 ligase. […] In addition, DDB1 E3 ligase was critical for the degrader-induced cyclin D downregulation. Depletion of DDB1 using CRISPR-Cas9 technology attenuated the cyclin D degradation induced by CPD-031 (FIG. 5C).

In assay [3] the test system is cyclin D1. Put plainly: Cyclin D1 degradation in parental and DDB1 knockout Hs578T cells. It is filed as cell-based. The settings on record: dose range, 4 hours. As for the experimental part: Parental and DDB1 knockout Hs578T cells were treated with a dose range of CPD-031 for 4 hours (FIG. 5C).
The procedures for CRISPR-Cas9 mediated knock-out followed the previously published protocols (Ran et al., 2013). The sgRNA targeting human DDB1 (sgRNA sequence: […]) (SEQ ID NO: 1) was designed using the online CRISPR Design Tool (chopchop.cbu.uib.no/), and constructed into CRISPR-Cas9 vector, pLentiCRISPR V2 (Addgene #52961). Lentivirus was produced in HEK293T cells by co-transfecting pLentiCRISPR construct with packing vectors. Hs578T cells stably expressing Cas9 enzyme and sgRNA were established by lentivirus transduction, selected, and maintained in medium containing […] puromycin.
Cultured cells were washed with cold PBS once and lysed in cold RIPA buffer supplemented with protease inhibitors and phosphatase inhibitors (Beyotime Biotechnology). The solutions were then incubated at 4° C. for 30 min with gentle agitation to fully lysed cells. Cell lysates were centrifuged at 13,000 rpm for 10 min at 4° C. and pellets were discarded. Total protein concentrations in the lysates were determined following BCA assays (Beyotime Biotechnology). Cell lysates were mixed with Laemmli loading buffer and heated at 99° C. for 5 min. […] Protein bands were quantitated using the Image Lab software provided by Bio-Rad.

T1 sequence (Q16531 other isoform, or with tags, fused parts or gaps DEL396-460/DEL463-701/T703N/I704S/D705G): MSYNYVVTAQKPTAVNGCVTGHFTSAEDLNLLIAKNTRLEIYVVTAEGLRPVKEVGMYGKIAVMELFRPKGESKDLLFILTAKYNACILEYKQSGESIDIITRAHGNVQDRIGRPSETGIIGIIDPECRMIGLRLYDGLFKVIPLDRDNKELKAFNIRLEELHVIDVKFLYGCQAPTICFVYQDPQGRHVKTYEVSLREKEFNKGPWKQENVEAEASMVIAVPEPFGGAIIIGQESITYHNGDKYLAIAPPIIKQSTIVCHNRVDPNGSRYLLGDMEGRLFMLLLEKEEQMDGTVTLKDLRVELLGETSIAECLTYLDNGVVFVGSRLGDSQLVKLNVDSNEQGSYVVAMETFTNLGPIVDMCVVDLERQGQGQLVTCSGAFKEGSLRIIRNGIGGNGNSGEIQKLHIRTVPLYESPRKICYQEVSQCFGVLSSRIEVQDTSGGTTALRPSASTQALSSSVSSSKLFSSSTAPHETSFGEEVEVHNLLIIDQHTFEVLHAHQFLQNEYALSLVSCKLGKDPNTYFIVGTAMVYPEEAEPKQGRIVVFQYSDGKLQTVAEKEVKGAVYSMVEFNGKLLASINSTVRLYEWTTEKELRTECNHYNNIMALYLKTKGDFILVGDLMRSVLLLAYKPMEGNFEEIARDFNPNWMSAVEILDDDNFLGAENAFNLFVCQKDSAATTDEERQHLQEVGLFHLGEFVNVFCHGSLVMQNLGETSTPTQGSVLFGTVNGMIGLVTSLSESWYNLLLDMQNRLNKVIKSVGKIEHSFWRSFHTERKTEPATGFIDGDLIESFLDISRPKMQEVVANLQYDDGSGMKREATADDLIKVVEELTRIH

With `CC(=O)c1c(C)c2cnc(Nc3ccc(N4CCN(CC(=O)NCCOCCOCCOCCOCCOCCNc5ccc(C(=O)Nc6ncc(C)s6)c(C)c5)CC4)cn3)nc2n(C2CCCC2)c1=O` [CPD-002, 4-((1-(4-(6-((6-Acetyl-8-cyclopentyl-5-methyl-7-oxo-7,8-dihydropyrido[2,3-d]pyrimidin-2-yl)amino)pyridin-3-yl)piperazin-1-yl)-2-oxo-6,9,12,15,18-pentaoxa-3-azaicosan-20-yl)amino)-2-methyl-N-(5-methylthiazol-2-yl)benzamide], the Kd on DDB1 is 20000 to 50000 nM. Besides, the “CyclinD1 Degradation (200 nM)” value in the assay on cyclin D1 [1] is reported as “A (protein percentage degradation >=80%)”. Besides, the results for the IC50 in the assay with Hs578T, with KURAMOCHI and in the assay with MIA PaCa-2 were 215 nM, 920 nM and 175 nM, respectively.
As to `CC(=O)c1c(C)c2cnc(Nc3ccc(N4CCN(CC(=O)NCCOCCOCCOCCOCCOCCNc5ccc(C(=O)Nc6nc(C)c(C)s6)c(C)c5)CC4)cn3)nc2n(C2CCCC2)c1=O` [CPD-031, 4-((1-(4-(6-((6-Acetyl-8-cyclopentyl-5-methyl-7-oxo-7,8-dihydropyrido[2,3-d]pyrimidin-2-yl)amino)pyridin-3-yl)piperazin-1-yl)-2-oxo-6,9,12,15,18-pentaoxa-3-azaicosan-20-yl)amino)-N-(4,5-dimethylthiazol-2-yl)-2-methylbenzamide], the “cyclin D degradation after depletion of DDB1 (CRISPR-Cas9)” value with cyclin D1 [2] is on record as “attenuated”. The Kd at DDB1 is below 20000 nM. In addition, the “CyclinD1 Degradation (200 nM)” value in the assay with cyclin D1 [1] is “A (protein percentage degradation >=80%)”. Besides, the IC50 in the assay on Hs578T amounted to 38 nM; in the assay on KURAMOCHI, 190 nM; with MIA PaCa-2 it was 57 nM. Besides, in the assay on cyclin D1 [3], the “cyclin D1 degradation in DDB1 knockout versus parental cells” value is given as “partially compromised by depletion of DDB1 E3 ligase”.
